Source: patent US4497803A, “Inclusion compound of lankacidin-group antibiotic and use thereof” (priority 1982, dated 1985)
Converted amounts (≈) assume the structure as drawn. Like-named read-outs stand apart in the source and are kept apart here.

Key:
St. aureus 209P = assay: Stability of inclusion compound of lankacidin-group (24° C., for 6 days): antibacterial activity by paper disk assay; type: cell-based; details: methanol, 1000 μg/ml
Method: The inclusion compound of the present invention is stable in an aqueous solution, although it splits into lankacidin-group moiety and cyclodextrins moiety, when it is in the form of solution or powder, by contacting it with organic solvents (e.g., ethyl acetate, methyl isobutyl ketone) or various carriers (e.g., silica gel, high-porous resins). […] In comparing the antibacterial activity, concentrations of the inclusion compound are calculated in terms of lankacidin-group compound from which the inclusion compound is prepared.
Stability of inclusion compound of lankacidin-group
*1 Paper disk assay using Trypticase soy agar (Baltimore Biologicals Ltd.
U.S.A.) as test culture media.
*2 1000 μg/ml, Lankacidingroup is stable in methanol.
*3 Aqueous solution of the inclusion compound with cyclodextrin (1000
μg/ml calculated in terms of lankacidingroup)

[1] = Solubility of inclusion compound in water; type: physicochemical
Method: The lankacidin-group is added to each of solutions containing various amounts of cyclodextrin. The minimum concentration of cyclodextrin which dissolves the maximum amount of the lankacidin-group compound and practical concentrations thereof are determined on the basis of amounts of the lankacidin-group compound dissolved in the cyclodextrin solutions. Then, the molar ratio of cyclodextrin to lankacidin-group compound is calculated by the following equation:
Molar ratio=[Molarity of cyclodextrin]:[(Saturation molarity of lankacidin-group compound in a certain concentration of cyclodextrin-solution)-(saturation molarity of lankacidin-group compound in an aqueous solution)].
Moreover, a large amount of the present inclusion compound is dissolved in water and it is kept stably therein. Solubility of the inclusion compound in water is greater than that of landacidin-group compounds in water, when the amount of the inclusion compound dissolved is calculated in terms of lankacidin-group compound, and than saturation concentration of cyclodextrin in water so far as cyclodextrin contained in the inclusion compound is concerned (Table 2).
(1) Solubility of lankacidingroup in water.
(2) Solubility of lankacidingroup in M/100 cyclodextrin solution.
(3) Concentration of cyclodextrin of (2).
(4) Solubility (maximum) of the present inclusion compound (calculated in
terms of lankacidingroup contained) in water.
(5) Concentration of cyclodextrin contained in the inclusion compound of […]

[2] = Solubility in β-CD solution, shaken 16 hours (Example 3); type: physicochemical
Method: Powdery lankacidin C was added to an aqueous solution of cyclodextrin (hereinafter referred to as "CD") to have 4 mg/ml of the lankacidin C contained. After the mixture was stirred with a mixer, it was shaken at 5° C. for 2 hours, and passed through filter paper. The absorbancy of the filtrate was measured at 227-229 nm to determine concentration of the lankacidin C.
The solubilities of lankacidin A, lankacidin C and lankacidinol in a β-CD solution were measured in the same manner as that of Example 1 except that the shaking was continued for 16 hours.

[3] = Stability of lankacidin A and C in methanolic aqueous solutions, 40° C., HPLC (Example 7); type: physicochemical; details: for Residual rate / remaining at 4 h / remaining at 6 h: 10 μg/ml, 40° C.; for Residual rate: 0 hr; for remaining at 4 h / remaining at 6 h: read-out: Residual rate
Method: 5 ml each of a methanolic solution containing lankacidin A or C in a concentration of 100 μg per ml was added to 45 ml each of pH 4.5 and pH 7.0 buffer solutions and a buffer solution containing β-cyclodextrin.
Each mixture was placed in a glass vessel, and then sealed. While the mixtures were kept in the vessel at 40° C., 5 ml each was taken out from time to time and extracted with ethyl acetate. The organic layers were dried over anhydrous sodium sulfate and the concentrations of the lankacidin A or C was measured with high-performance liquid chromatography (HPLC).
Apparatus: Water Associates ALC/GPC 240 (Waters Associates Inc., U.S.A.)
Column: μPoracil 30 cm×3.9 mm.phi.
Eluent: n-Hexane: isopropyl alcohol: acetic acid (75:25:0.2).

[4] = Solubility / suspension in physiological saline for injection (Test Example); type: physicochemical
Method: 10 mg (titer) calculated in terms of lankacidin A is soluble in 1 ml each of physiological saline solution. As a control, lankacidin A itself used in Example 5 was employed.
5.2 ml (titer: 10 mg/kg) of this suspension was administered to pig No. 1 and 4.9 ml (titer: 7 mg/kg) was administered to pig No. 2 by injecting it into root portion of ear once a day for two days.
Thus, administration was impossible.

[5] = methanolic buffer with β-cyclodextrin, pH 4.5, β-cyclodextrin 10 mg/ml
[6] = methanolic buffer with β-cyclodextrin, pH 7.0, β-cyclodextrin 10 mg/ml

CC(=O)OC1C=CC(C)=CCC(O)C=CC(C)=CC(NC(=O)C(C)=O)C2(C)C(=O)OC(C1)C(C)C2=O (centres unmarked) [Lankacidin A, lankacidin A]
Antibacterial activity, inhibition diameter (St. aureus 209P; 0 day): 26.75 mm | Antibacterial activity, inhibition diameter (St. aureus 209P; 3 days at 24° C.): 27.0 mm | Antibacterial activity, inhibition diameter (St. aureus 209P; 6 days at 24° C.): 23.25 mm | solubility ([1]; m/100 cyclodextrin solution, M/100 cyclodextrin, (3) cyclodextrin 11.3 mg/ml, read-out: (2) Solubility of lankacidin-group in M/100 cyclodextrin solution): 2690 µg/mL (≈ 5360 µM) | solubility ([1]; water, read-out: (1) Solubility of lankacidin-group in water): 181 µg/mL (≈ 361 µM) | solubility at 16 h ([2]; aqueous β-cd solution, β-CD 2 × 10^-3 Mol/l): 632 µg/mL (≈ 1260 µM) | solubility at 16 h ([2]; aqueous β-cd solution, β-CD 2 × 10^-4 Mol/l): 201 µg/mL (≈ 401 µM) | solubility at 16 h ([2]; aqueous β-cd solution, β-CD 5 × 10^-3 Mol/l): 1370 µg/mL (≈ 2730 µM) | solubility at 16 h ([2]; aqueous β-cd solution, β-CD 5 × 10^-4 Mol/l): 265 µg/mL (≈ 528 µM) | solubility at 16 h ([2]; aqueous β-cd solution, β-CD 10^-2 Mol/l): 2690 µg/mL (≈ 5360 µM) | solubility at 16 h ([2]; aqueous β-cd solution, β-CD 10^-3 Mol/l): 400 µg/mL (≈ 797 µM) | solubility at 16 h ([2]; aqueous β-cd solution, β-CD 10^-4 Mol/l): 195 µg/mL (≈ 389 µM) | Solubility in β-CD solution as function of β-CD concentration ([2]; from the vicinity of 10^-3 Mol/l of β-CD): increase in proportion to the concentration of β-CD | solubility at 16 h ([2]; water, β-CD 0 Mol/l): 181 µg/mL (≈ 361 µM) | Residual rate ([3]; pH 4.5, no β-cyclodextrin): 100% | Residual rate ([3]; pH 4.5, β-cyclodextrin 10 mg/ml): 100% | Residual rate ([3]; pH 7.0, no β-cyclodextrin): 100% | Residual rate ([3]; pH 7.0, β-cyclodextrin 10 mg/ml): 100% | Effect of β-cyclodextrin on stability in methanolic aqueous solutions ([3]; 1000 times β-CD by weight added): increased stabilities | remaining at 4 h ([3]; methanolic aqueous buffer, pH 4.5, no β-cyclodextrin): 34.5% | remaining at 4 h ([3]; methanolic aqueous buffer, pH 7.0, no β-cyclodextrin): 17.4% | remaining at 4 h [3, 5]: 91.9% | remaining at 6 h [3, 5]: 85.7% | remaining at 4 h [3, 6]: 58.3% | remaining at 6 h [3, 6]: 48.1% | Preparation of injection/suspension in sterilized physiological saline solution [4]: suspension could not be obtained due to separation of the drug
